The record followed here is ChEMBL document CHEMBL4725353, “Discovery of Pyrido[2,3-b]indole Derivatives with Gram-Negative Activity Targeting Both DNA Gyrase and Topoisomerase IV” (J Med Chem, 2020).

Data set [1] can be described thus: Distribution coefficient between octanol and buffer, log D of the compound in pH 7.4 buffer by CAMDIS assay. The data set is classed as physicochemical.
The subject of data set [2] is Escherichia coli. The data set is described as follows: Antibacterial activity against Escherichia coli ATCC 35218 assessed as reduction in microbial growth preincubated for 20 to 24 hrs followed by subculture in absence of compound and measured on day 4 CLSI based broth microdilution susceptibility method. The data set is classed as functional. The note with it: time hrs 20-24.

Data set [3] concerns Escherichia coli. The data set can be described thus: Antibacterial activity against Escherichia coli ATCC BAA-2340 assessed as reduction in microbial growth preincubated for 20 to 24 hrs followed by subculture in absence of compound and measured on day 4 CLSI based broth microdilution susceptibility method. Type of data set: functional. The conditions noted are these: time hrs 20-24. (Broth dilution looks for growth in wells or tubes with falling amounts of substance.)

Data set [4] concerns Klebsiella pneumoniae. The data set is described as follows: Antibacterial activity against Klebsiella pneumoniae ATCC 10031 assessed as reduction in microbial growth preincubated for 20 to 24 hrs followed by subculture in absence of compound and measured on day 4 CLSI based broth microdilution susceptibility method. The data set is classed as functional. The note with it: time hrs 20-24.

The subject of data set [5] is Klebsiella pneumoniae. The data set is described as follows: Antibacterial activity against Klebsiella pneumoniae ATCC 700603 assessed as reduction in microbial growth preincubated for 20 to 24 hrs followed by subculture in absence of compound and measured on day 4 CLSI based broth microdilution susceptibility method. The note with it: time hrs 20-24. Type of data set: functional.

Data set [6] has as its system Klebsiella pneumoniae. The data set can be described thus: Antibacterial activity against Klebsiella pneumoniae ATCC BAA-2146 assessed as reduction in microbial growth preincubated for 20 to 24 hrs followed by subculture in absence of compound and measured on day 4 CLSI based broth microdilution susceptibility method. Type of data set: functional. The note with it: time hrs 20-24.

Data set [7] has as its system Acinetobacter baumannii. The data set can be described thus: Antibacterial activity against Acinetobacter baumannii ATCC 19606 assessed as reduction in microbial growth preincubated for 20 to 24 hrs followed by subculture in absence of compound and measured on day 4 CLSI based broth microdilution susceptibility method. Type of data set: functional. The conditions noted are these: time hrs 20-24.

Data set [8] deals with Acinetobacter baumannii. The data set can be described thus: Antibacterial activity against Acinetobacter baumannii ATCC 51432 assessed as reduction in microbial growth preincubated for 20 to 24 hrs followed by subculture in absence of compound and measured on day 4 CLSI based broth microdilution susceptibility method. The note with it: time hrs 20-24. The data set is classed as functional.

Data set [9] concerns Acinetobacter baumannii. The data set is described as follows: Antibacterial activity against Acinetobacter baumannii ATCC BAA-747 assessed as reduction in microbial growth preincubated for 20 to 24 hrs followed by subculture in absence of compound and measured on day 4 CLSI based broth microdilution susceptibility method. The note with it: time hrs 20-24. The data set is classed as functional.

Data set [10] deals with Pseudomonas aeruginosa. The data set can be described thus: Antibacterial activity against Pseudomonas aeruginosa PAO1 assessed as reduction in microbial growth preincubated for 20 to 24 hrs followed by subculture in absence of compound and measured on day 4 CLSI based broth microdilution susceptibility method. Type of data set: functional. The note with it: time hrs 20-24.

Data set [11] relates to Pseudomonas aeruginosa. The data set is described as follows: Antibacterial activity against Pseudomonas aeruginosa ATCC 27853 assessed as reduction in microbial growth preincubated for 20 to 24 hrs followed by subculture in absence of compound and measured on day 4 CLSI based broth microdilution susceptibility method. Type of data set: functional. The note with it: time hrs 20-24.

The subject of data set [12] is Pseudomonas aeruginosa. The data set can be described thus: Antibacterial activity against Pseudomonas aeruginosa ATCC BAA-2113 assessed as reduction in microbial growth preincubated for 20 to 24 hrs followed by subculture in absence of compound and measured on day 4 CLSI based broth microdilution susceptibility method. The data set is classed as functional. The note with it: time hrs 20-24.

The nature of data set [13]: physchem.
Description: Ionization constant (acid), pKa of the compound by photometric titration assay
The test system of data set [14] is Escherichia coli. The data set can be described thus: microbe, parasite or virus in culture. The note with it: ATCC 29213.
Description: Antibacterial activity against Escherichia coli ATCC 29213 assessed as reduction in microbial growth preincubated for 20 to 24 hrs followed by subculture in absence of compound and measured on day 4 CLSI based broth microdilution susceptibility method
Data set [15] relates to Escherichia coli. The data set is described as follows: microbe, parasite or virus in culture. The note with it: ATCC 25922.
Description: Antibacterial activity against Escherichia coli ATCC 25922 assessed as reduction in microbial growth preincubated for 20 to 24 hrs followed by subculture in absence of compound and measured on day 4 CLSI based broth microdilution susceptibility method
The nature of the next data set: in vitro. The note with it: mouse, liver microsomes. Background: Microsomes from liver hold many membrane-bound enzymes, among them those of drug oxidation.
Data set [16] is described as follows: physchem. The note with it: PBS, pH 6.5.
Description: Solubility of compound in PBS at pH 6.5 incubated for over night by HPLC-UV based lyophilization solubility assay
Data set [17] in a line: Dissociation constant, pKa of compound by photometric titration assay. Type of data set: physicochemical.

In brackets after ≈: the same amount, converted by molar mass.

Description for in vitro: Intrinsic clearance in mouse liver microsomes preincubated for 10 mins followed by NADPH regenerating system addition and measured up to 30 mins by LC/MS-MS analysis

On to `CCNc1cc(F)cc2c1[nH]c1ncc(-c3cncc(N)c3)c(-n3ccc(C(F)(F)F)n3)c12`, for which the logD in data set [1] was 3.44. The MIC with Escherichia coli [2] came out at 2.85 µg/mL; in the data set on Escherichia coli [3] it was 2.85 µg/mL; with Klebsiella pneumoniae [4], 0.178 µg/mL; with Klebsiella pneumoniae [5] it was 1.42 µg/mL; with Klebsiella pneumoniae [6] it was 5.7 µg/mL; with Acinetobacter baumannii [7] it was 1.42 µg/mL. The MIC in the data set with Acinetobacter baumannii [8] is 5.7 µg/mL; with Acinetobacter baumannii [9] it was 2.85 µg/mL; in the data set with Pseudomonas aeruginosa [10] it was 2 µg/mL; with Pseudomonas aeruginosa [11], 2.85 µg/mL; in the data set on Pseudomonas aeruginosa [12] it was 1.42 µg/mL; against Escherichia coli [14], less than 0.016 µg/mL. Also, the MIC with Escherichia coli [15] came out at 0.25 µg/mL (≈ 0.549 µM). In addition, the pKa in the data set “physchem [13]” is 4.84.

`CCNc1cc(F)cc2c1[nH]c1ncc(-c3cnc(OC4CNC4)nc3)c(-n3ccc(C(F)(F)F)n3)c12` returned a pKa in the data set “physchem [13]” of 8.62. Further, the MIC amounted to 0.63 µg/mL (≈ 1.23 µM) in the data set with Escherichia coli [14] and 1 µg/mL (≈ 1.95 µM) against Escherichia coli [15].

In turn, `CCNc1cc(F)cc2c1[nH]c1ncc(-c3cnc(NC4CCNC4)nc3)c(-n3ccc(C(F)(F)F)n3)c12` (stereo not given) registered a pKa in “physchem [13]” of 9.55. The intrinsic clearance (CLint scaled) at 0.5 h in “in vitro” is 60.1 mL/min/kg. The compound also returned a solubility in “physchem [16]” of 8.3 µg/mL (≈ 15.8 µM). Besides, the MIC came to 0.25 µg/mL (≈ 0.476 µM) in the data set with Escherichia coli [14] and 2 µg/mL (≈ 3.81 µM) in the data set on Escherichia coli [15].

In the case of `CCNc1cc(F)cc2c1[nH]c1ncc(-c3cncc(C(=O)O)c3)c(-n3ccc(C(F)(F)F)n3)c12`, the pKa in data set [17] was 3.57. Also, in data set [1], the logD came out at 1.9. Besides, the MIC in the data set on Escherichia coli [14] is 1 µg/mL (≈ 2.06 µM); in the data set with Escherichia coli [15], greater than 16 µg/mL.

For `CCNc1cc(F)cc2c1[nH]c1ncc(-c3cnc(NC4CNC4)nc3)c(-n3ccc(C(F)(F)F)n3)c12`, the pKa in the data set “physchem [13]” is 9.35. Moreover, the MIC in the data set with Escherichia coli [14] is less than 0.25 µg/mL; against Escherichia coli [15], 4 µg/mL (≈ 7.82 µM).

In data set [17], `CCNc1cc(F)cc2c1[nH]c1ncc(-c3cncc(Cc4nnn[nH]4)c3)c(-n3ccc(C(F)(F)F)n3)c12` gave a pKa of 4.78. This compound also gave a logD in data set [1] of 1.93. The MIC in the data set with Escherichia coli [14] is 0.444 µg/mL (≈ 0.85 µM); against Escherichia coli [15], greater than 11.4 µg/mL.

In turn, `CCNc1cc(F)cc2c1[nH]c1ncc(-c3cnc(N)nc3)c(-n3ccc(C(F)(F)F)n3)c12` yielded a pKa in the data set “physchem [13]” of 4.39. Besides, in “in vitro”, the intrinsic clearance (CLint scaled) at 0.5 h was found to be 25.9 mL/min/kg. This compound registered a solubility in “physchem [16]” of 7.6 µg/mL (≈ 16.7 µM). In addition, the values for the MIC against Escherichia coli [14] and in the data set with Escherichia coli [15] were 0.63 µg/mL (≈ 1.38 µM) and 1 µg/mL (≈ 2.19 µM), respectively.

For `CCNc1cc(F)cc2c1[nH]c1ncc(-c3cnc4ccnn4c3)c(-n3ccc(C(F)(F)F)n3)c12`, the pH-dependent lipophilicity (logD) in data set [1] is 3.54. The MIC turned out to be 0.75 µg/mL with Escherichia coli [2]; 0.75 µg/mL in the data set on Escherichia coli [3]; 0.38 µg/mL in the data set on Klebsiella pneumoniae [4]; 0.75 µg/mL with Klebsiella pneumoniae [5]; 1.5 µg/mL with Klebsiella pneumoniae [6]; 0.38 µg/mL with Acinetobacter baumannii [7]. The MIC in the data set on Acinetobacter baumannii [8] was found to be 1.5 µg/mL; in the data set with Acinetobacter baumannii [9] it was 0.75 µg/mL; in the data set on Pseudomonas aeruginosa [10] it was 2 µg/mL; with Pseudomonas aeruginosa [11], 1.5 µg/mL; with Pseudomonas aeruginosa [12] it was 0.75 µg/mL; in the data set with Escherichia coli [14], 0.31 µg/mL (≈ 0.645 µM). In the data set with Escherichia coli [15], this compound displayed an MIC of 0.25 µg/mL (≈ 0.52 µM).

In the data set “physchem [13]”, `CCNc1cc(F)cc2c1[nH]c1ncc(-c3cncc(C#N)c3)c(-n3ccc(N)n3)c12` registered a pKa of 2.02. Further, the MIC came to 0.125 µg/mL (≈ 0.303 µM) against Escherichia coli [14] and 8 µg/mL (≈ 19.4 µM) in the data set on Escherichia coli [15].

Consider `CCNc1cc(F)cc2c1[nH]c1ncc(-c3cncnc3)c(-n3ccc(C(F)(F)F)n3)c12`, for which the pH-dependent lipophilicity (logD) in data set [1] amounted to 3.48. Moreover, the MIC in the data set with Escherichia coli [2] turned out to be 0.34 µg/mL; in the data set with Escherichia coli [3], 1.38 µg/mL; with Klebsiella pneumoniae [4], 0.09 µg/mL; in the data set with Klebsiella pneumoniae [5] it was 0.69 µg/mL; with Klebsiella pneumoniae [6], 1.38 µg/mL; in the data set with Acinetobacter baumannii [7] it was 0.17 µg/mL. Besides, the MIC was 1.38 µg/mL with Acinetobacter baumannii [8]; 0.69 µg/mL in the data set with Acinetobacter baumannii [9]; 2 µg/mL with Pseudomonas aeruginosa [10]; 1.38 µg/mL in the data set on Pseudomonas aeruginosa [11]; 0.34 µg/mL with Pseudomonas aeruginosa [12]; less than 0.016 µg/mL against Escherichia coli [14]. For the same compound, the MIC in the data set with Escherichia coli [15] worked out at 0.25 µg/mL (≈ 0.566 µM). This compound also gave a CLint scaled at 0.5 h in “in vitro” of 76.1 mL/min/kg. For the same compound, the solubility in “physchem [16]” was less than 0.2 µg/mL.

With `CCNc1cc(F)cc2c1[nH]c1ncc(-c3cnc(OC4CCNCC4)nc3)c(-n3ccc(C(F)(F)F)n3)c12`, the pKa in “physchem [13]” was 9.06. The values for the MIC with Escherichia coli [14] and against Escherichia coli [15] were 0.63 µg/mL (≈ 1.17 µM) and 1 µg/mL (≈ 1.85 µM), respectively.

The term logD denotes the decadic logarithm of the distribution of all forms, ionised or not, between an organic phase and buffer at a given pH. Low readings indicate a more hydrophilic compound, high ones a more lipophilic compound. For orientation: pKa means the pH at which an ionisable group is half protonated. A lower pKa goes with a stronger acid or weaker base. For orientation: CLint scaled means a measure of how fast metabolising enzymes remove a compound, apart from limits set by blood flow. Lower therefore signals slow turnover. Usually solubility stands for the concentration that dissolves in the medium under given conditions.
